One assay deals with T1, SULT2A1 (Homo sapiens, UniProt Q06520).
T1 sequence (Q06520 1-285): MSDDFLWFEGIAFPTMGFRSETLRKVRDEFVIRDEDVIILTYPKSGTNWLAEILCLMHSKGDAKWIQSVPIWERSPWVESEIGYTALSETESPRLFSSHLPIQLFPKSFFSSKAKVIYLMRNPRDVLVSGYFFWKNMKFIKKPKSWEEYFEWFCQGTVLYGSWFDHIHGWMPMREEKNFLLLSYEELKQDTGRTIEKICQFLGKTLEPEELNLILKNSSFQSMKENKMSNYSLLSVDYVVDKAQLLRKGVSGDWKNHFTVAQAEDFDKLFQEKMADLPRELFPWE
Nature of the assay: Initial-rate 1-HP sulfonation inhibition. Type of assay: biochemical.

The target of the next assay is T2, SULT2B1b, S347D, Y257A (Homo sapiens, UniProt O00204, S347D/Y257A).
T2 sequence (O00204 1-365 Y257A/S347D): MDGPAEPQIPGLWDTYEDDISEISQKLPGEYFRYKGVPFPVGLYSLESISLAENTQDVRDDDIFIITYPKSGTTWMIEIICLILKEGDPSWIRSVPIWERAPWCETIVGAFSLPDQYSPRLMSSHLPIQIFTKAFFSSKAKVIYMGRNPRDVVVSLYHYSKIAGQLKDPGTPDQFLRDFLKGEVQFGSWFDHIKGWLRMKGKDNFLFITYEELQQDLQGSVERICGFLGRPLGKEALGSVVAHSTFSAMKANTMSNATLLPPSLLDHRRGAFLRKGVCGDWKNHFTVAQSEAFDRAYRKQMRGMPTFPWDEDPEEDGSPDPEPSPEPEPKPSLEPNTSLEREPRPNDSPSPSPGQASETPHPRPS
Put plainly: Initial-rate parameters, direct-contact mutant Y257A.

Assay [1] has as its target T3, SULT2B1b S347D spin-labeled at residue 171 (Homo sapiens, UniProt O00204, C225S/C278S/C81S/S347D/T171C).
T3 sequence (O00204 1-365 C81S/T171C/C225S/C278S/S347D): T2 sequence (O00204 1-365 Y257A/S347D) with C81S, T171C, C225S, A257Y, C278S
Nature of the assay: Initial-rate parameters, spin-labeled mutant 171. Type of assay: biochemical.

Assay [2] concerns the target T4, SULT2B1b S347D spin-labeled at residue 247 (Homo sapiens, UniProt O00204, C225S/C278S/C81S/S247C/S347D).
T4 sequence (O00204 1-365 C81S/C225S/S247C/C278S/S347D): T2 sequence (O00204 1-365 Y257A/S347D) with C81S, C225S, S247C, A257Y, C278S
Nature of the assay: Initial-rate parameters, spin-labeled mutant 247. Type of assay: biochemical.

Assay [3] addresses T5, SULT2B1b S347D spin-labeled at residue 21 (Homo sapiens, UniProt O00204, C225S/C278S/C81S/S21C/S347D).
T5 sequence (O00204 1-365 S21C/C81S/C225S/C278S/S347D): T2 sequence (O00204 1-365 Y257A/S347D) with S21C, C81S, C225S, A257Y, C278S
Nature of the assay: Initial-rate parameters, spin-labeled mutant 21. It counts as biochemical.

The target of another assay is T6, SULT2B1b, S347D, W13A (Homo sapiens, UniProt O00204, S347D/W13A).
T6 sequence (O00204 1-365 W13A/S347D): T2 sequence (O00204 1-365 Y257A/S347D) with W13A, A257Y
Nature of the assay: Initial-rate parameters, direct-contact mutant W13A.

Another assay concerns the target T7, SULT2B1a (Homo sapiens, UniProt O00204).
T7 sequence (O00204 1-350 isoform O00204-2): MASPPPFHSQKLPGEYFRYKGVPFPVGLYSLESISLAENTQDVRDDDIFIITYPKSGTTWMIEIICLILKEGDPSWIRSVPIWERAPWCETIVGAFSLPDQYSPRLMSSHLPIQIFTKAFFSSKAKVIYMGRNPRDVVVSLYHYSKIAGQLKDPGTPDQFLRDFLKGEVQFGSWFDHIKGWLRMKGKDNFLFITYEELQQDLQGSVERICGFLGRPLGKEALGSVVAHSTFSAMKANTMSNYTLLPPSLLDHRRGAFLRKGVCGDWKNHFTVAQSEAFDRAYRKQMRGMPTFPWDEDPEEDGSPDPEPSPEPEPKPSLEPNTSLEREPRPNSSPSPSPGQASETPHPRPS
Nature of the assay: Initial-rate 1-HP sulfonation inhibition. It counts as biochemical.

Numbering of substitutions follows the chain as printed. Read-outs that look alike come from different tables or passages of the source.

On to `O=c1c(O)c(-c2ccc(O)c(O)c2)oc2cc(O)cc(O)c12` [quercetin], for which the inhibition by quercetin entry is on record as “not inhibited” against SULT2A1, “No inhibition was detected” against SULT2A1 (up to 100 μM quercetin), “does not detectably inhibit” against SULT2B1a (concentrations as high as 10 μM) and “No inhibition was detected” against SULT2B1a (up to 100 μM quercetin). The Ki at SULT2B1b, S347D, Y257A came to 1600 nM; in assay [1], 350 nM; in assay [2] it was 320 nM; in assay [3], 330 nM; at SULT2B1b, S347D, W13A, 7500 nM.

These data come from PMC9260854 (Biochemistry, 2022).
